Results as given in patent US5475022A, “Phenyl or heteroaryl and tetrahydronaphthyl substituted diene compounds having retinoid like biological activity” (Allergan, Inc., priority 1993, dated 1995).
Like-named read-outs stand apart in the source and are kept apart here.

How the values were obtained:
[1] = test system: ornithine decarboxylase (ODC); experiment: inhibition of TPA induction of ornithine decarboxylase (ODC); format: cell-based; details: read-out: % ODC Inhibition at 1.0 μM concentration
From the text: The retinoid-like activity of these compounds is confirmed through the classic measure of retinoic acid activity involving the effects of retinoic acid on ornithine decarboxylase. The original work on the correlation between retinoic acid and decrease in cell proliferation was done by Verma & Boutwell, Cancer Research, 1977, 37,2196-2201. That reference discloses that ornithine decarboxylase (ODC) activity increased precedent to polyamine biosynthesis. It has been established elsewhere that increases in polyamine synthesis can be correlated or associated with cellular proliferation. Thus, if ODC activity could be inhibited, cell hyperproliferation could be modulated. Although all causes for ODC activity increases are unknown, it is known that 12-0-tetradecanoylphorbol-13-acetate (TPA) induces ODC activity.

[2] = test system: ornithine decarboxylase (ODC); details: literature statement; cited from earlier work

Question: Which inhibition at 1 µM ([1]; TPA-induced ODC activity) does the source give for COC(=O)c1ccoc1/C=C/C=C(\C)c1cc2c(cc1C)C(C)(C)CCC2(C)C [Compound 1, Methyl 2-[4-methyl-4-(3,5,5,8,8-pentamethyl-5,6,7,8-tetrahydronaphthalene)-2-yl-1E,3E-butadien-1-yl]-furan-3-carboxylate] here?
Answer: 37%

Question: For COC(=O)c1ccoc1/C=C/C=C(/C)c1cc2c(cc1C)C(C)(C)CCC2(C)C [Compound 2, Methyl 2-[4-methyl-4-(3,5,5,8,8-pentamethyl-5,6,7,8-tetrahydronaphthalene)-2-yl-1E,3Z-butadien-1-yl]-furan-3-carboxylate], which inhibition at 1 µM ([1]; TPA-induced ODC activity) is on record?
Answer: 36%

Question: For COC(=O)c1ccccc1/C=C/C=C(\C)c1ccc2c(c1)C(C)(C)CCC2(C)C [Compound 6, Methyl 2-[4-methyl-4-(5,5,8,8-tetramethyl-5,6,7,8-tetrahydronaphthalene)-2-yl-1E,3E-butadien-1-yl]benzoate], which inhibition at 1 µM ([1]; value determined by linear regression of data collected at 30, 100, 300 nanomolar concentrations) is on record?
Answer: 100%

Question: For C/C(=C\C=C\c1ccccc1C(=O)O)c1cc2c(cc1C)C(C)(C)CCC2(C)C [Compound 7, 2-[4-Methyl-4-(3,5,5,8,8-pentamethyl-5,6,7,8-tetrahydronaphthalene)-2-yl-1E,3E-butadien-1-yl]benzoic acid], which inhibition at 1 µM ([1]; TPA-induced ODC activity) is on record?
Answer: 79%

Question: For C/C(=C/C=C/c1ccccc1C(=O)O)c1cc2c(cc1C)C(C)(C)CCC2(C)C [Compound 8, 2-[4-Methyl4-(3,5,5,8,8-pentamethyl-5,6,7,8-tetrahydronaphthalene)-2-yl-1E,3Z-butadien-1-yl]benzoic acid], which inhibition at 1 µM ([1]; TPA-induced ODC activity) is on record?
Answer: 75%

Question: Which inhibition at 1 µM ([1]; TPA-induced ODC activity) does the source give for C/C(=C/C=C/c1occc1C(=O)O)c1cc2c(cc1C)C(C)(C)CCC2(C)C [Compound 9, 2-[4-Methyl-4-(3,5,5,8,8-pentamethyl-5,6,7,8-tetrahydronaphthalene)-2-yl-1E,3Z-butadien-1-yl]-furan-3-carboxylic acid] here?
Answer: 56%

Question: Which inhibition at 1 µM ([1]; TPA-induced ODC activity) does the source give for COC(=O)c1ccoc1/C=C/C=C(\C)c1ccc2c(c1)C(C)(C)CCC2(C)C [Compound 11, Methyl 2-[4-methyl-4-(5,5,8,8,-tetramethyl5,6,7,8,-tetrahydronaphthalen)-2-yl-1E,3E-butadien-1-yl] furan 3-carboxylate] here?
Answer: 26%

Question: With COC(=O)c1ccoc1/C=C/C=C(/C)c1ccc2c(c1)C(C)(C)CCC2(C)C [Compound 12, Methyl 2-[4-methyl-4-(5,5,8,8, -tetramethyl-5,6,7,8, -tetrahydronaphthalen)2-yl-1E, 3Z-butadien-1-yl] furan 3-carboxylate] as the compound, how does the inhibition at 1 µM ([1]; TPA-induced ODC activity) read?
Answer: 42%

Question: Which inhibition at 1 µM ([1]; TPA-induced ODC activity) does the source give for C/C(=C\C=C\c1occc1C(=O)O)c1ccc2c(c1)C(C)(C)CCC2(C)C [Compound 13, 2-[4-Methyl-4-(5,5,8,8,-tetramethyl-5,6,7,8,-tetrahydronaphthalen)-2-yl-1E,3E-butadien-1-yl] furan 3-carboxylic acid] here?
Answer: 60%

Question: With C/C(=C/C=C/c1occc1C(=O)O)c1ccc2c(c1)C(C)(C)CCC2(C)C [Compound 14, 2-[4-Methyl-4-(5,5,8,8,-tetramethyl-5,6,7,8-tetrahydronaphthalen)-2-yl-1E,3Z-butadien-1-yl] furan 3-carboxylic acid] as the compound, how does the inhibition at 1 µM ([1]; TPA-induced ODC activity) read?
Answer: 72%

Question: With C/C(=C\C=C\c1ccsc1C(=O)O)c1cc2c(cc1C)C(C)(C)CCC2(C)C [Compound 17, 3-[4-Methyl-4-(3,5,5,8,8,-pentamethyl-5,6,7,8,-tetrahydronaphthalen)-2-yl-1E,3 E-butadien-1-yl]thiophene 2-carboxylic acid] as the compound, how does the inhibition at 1 µM ([1]; TPA-induced ODC activity) read?
Answer: 79%

Question: For CCOC(=O)c1occc1/C=C\C=C(/C)c1cc2c(cc1C)C(C)(C)CCC2(C)C [Compound 19, Ethyl 3-[4-methyl-4-(3,5,5,8,8-pentamethyl-5,6,7,8-tetrahydronaphthalene)-2-yl-1Z, 3E-butadiene-1-yl]-2-furanoate], which inhibition at 1 µM ([1]; TPA-induced ODC activity) is on record?
Answer: 73%

Question: For COC(=O)c1ccccc1/C=C/C=C(\C)c1cc2c(cc1C)C(C)(C)CCC2(C)C [Compound 24, Methyl 2-[4-methyl-4-(3,5,5,8,8-pentametyl-5,6,7,8-tetrahydronaphthalene)-2-yl-1E,3E-butadien-1-yl]benzoate], which inhibition at 1 µM ([1]; TPA-induced ODC activity) is on record?
Answer: 88%

Question: With CC1=C(/C=C/C(C)=C/C=C/C(C)=C/C(=O)O)C(C)(C)CCC1 [Retinoic acid] as the compound, how does the “inhibition of induction of ODC activity by TPA” value [2] read?
Answer: inhibits this induction of ODC activity by TPA
